Source: patent publication US4438207A, “Radioimmunoassay for cannabinoids” (priority 1981, dated 1984)

Columns and labels:
antiserum = assay: Binding of iodinated antigen to THC antiserum; design: species or system rabbit
Protocol: A total of 50 μl of a solution of […] of (6aR-trans)-N-[2-(4-hydroxyphenyl)ethyl]-4-(6a,7,8,10a-Tetrahydro-6,6,9-trimethyl-3-pentyl-6H-dibenzo[b,d]pyran-1-oxy)butanamide in 1 ml of 100% alcohol was added to a vial containing 5 mCi of Na^125 I having a radioactive concentration of >100 mCi/ml. To this mixture was then added a total of 40 μl of chloramine T solution (5 mg/ml in 75% EtOH; 25% Borate buffer 0.1 M, pH 8.4). The reaction mixture was mixed for 180 seconds. After mixing, a total of 40 μl of a 1% solution of sodium meta bisulfite (75% EtOH, 25% Tris buffer 0.1 M, pH 7.0) was added to the reaction vial, and the vial contents were mixed for 30 seconds to stop the reaction.
The mixture was removed from the vial and placed on the surface of a Bio-Gel P-2 column (1.5×40 cm, 100-200 mesh) until completely absorbed on the column bed. Approximately 200 ml of 60% Tris -40% EtOH were added, and 100×1-2 ml fractions were collected. The eluate contained the above-captioned, labeled antigen.
After selection of the appropriate fractions (≥50% binding), the fractions were pooled and diluted 1:50 in 0.01 M phosphate buffered saline (PBS) containing 25% ethanol with 0.1% sodium azide and 0.002-0.007% butylated hydroxy toluene (BHT) as preservatives.
[…]. Multiple iodinations were performed on Δ^9 -tetrahydrocannabinol,and the radioisotopically-labeled reagent was used as the ^125 I-labeled antigen. The elution patterns varied considerably. In general, there were numerous small peaks in the elution patterns of most of the iodination products with the percent binding being lower than 50%. On occasion, there were two major peaks with insufficient binding (<50%) in either peak.
. Subsequent injections were made at four-week intervals with immunogen in Freund's incomplete adjuvant. Bleedings, obtained by venipuncture from immunized rabbits, were allowed to stand at 2°-8° C. temperature until the clot had formed. The serum was decanted and stored at from -20° to 5° C.

[1] = system: Tetrahydrocannabinol Antibody; assay: ^125 I THC radioimmunoassay response curve, anion exchange resin separation; assay type: binding, rabbit; conditions: resin reagent
[2] = experiments with humans; cited from earlier work
[3] = system: Tetrahydrocannabinol Antibody; assay: ^125 I THC radioimmunoassay response curve, dextran-coated charcoal separation; assay type: binding, rabbit
[4] = Urine THC levels as a function of time after smoking known dosages; conditions: THC 2.5 mg smoked

(6aR-trans)-N-[2-hydroxyphenyl)ethyl]-4-(6a,7,10,10a-Tetrahydro-6,6,9-trimethyl-3-pentyl-6H-dibenzo[b,d]pyran-1-oxy)butanamide [Δ^9 -Tetrahydrocannabinol Derivative]
binding properties retained (antiserum; antigen reagent, at least six weeks): > 50% | binding of iodinated product, major peak (antiserum; upon iodination, major peak, fractions #10 to #15): > 50% | binding of iodinated product, minor peak (antiserum; upon iodination, minor peak, fractions #30 to #35): no binding

CCCCCc1cc(O)c2c(c1)OC(C)(C)[C@@H]1CCC(C)=C[C@@H]21 [THC, Δ-9-tetrahydrocannabinol]
DPM ([1]; 12.5 ng/ml THC): 31096 DPM | DPM ([1]; 25 ng/ml THC): 29212 DPM | DPM ([1]; 50 ng/ml THC): 27945 DPM | DPM ([1]; 100 ng/ml THC): 26333 DPM | DPM ([1]; 200 ng/ml THC): 25651 DPM | excretion route of metabolites [2]: mainly via feces | extent of metabolism [2]: almost complete metabolism | DPM ([3]; 12.5 ng/ml THC): 13946 DPM | DPM ([3]; 25.0 ng/ml THC): 11964 DPM | DPM ([3]; 50.0 ng/ml THC): 11389 DPM | DPM ([3]; 100.0 ng/ml THC): 11342 DPM | DPM ([3]; 200.0 ng/ml THC): 10474 DPM | Tetrahydrocannabinol Concentration in urine ([4]; subject 1 (smoked marijuana prior to study), sodium azide added, 0 h): 10.0 ng THC E/ml | Tetrahydrocannabinol Concentration in urine ([4]; subject 1 (smoked marijuana prior to study), sodium azide added, 0-4 h): 29.0 ng THC E/ml | Tetrahydrocannabinol Concentration in urine ([4]; subject 1 (smoked marijuana prior to study), sodium azide added, 4-8 h): 70.0 ng THC E/ml | Tetrahydrocannabinol Concentration in urine ([4]; subject 1 (smoked marijuana prior to study), sodium azide added, 12-24 h): 72.5 ng THC E/ml | Tetrahydrocannabinol Concentration in urine ([4]; subject 1 (smoked marijuana prior to study), sodium azide added, 24-48 h): 41.5 ng THC E/ml | Tetrahydrocannabinol Concentration in urine ([4]; subject 1 (smoked marijuana prior to study), sodium azide added, 48-72 h): 40.0 ng THC E/ml | Tetrahydrocannabinol Concentration in urine ([4]; subject 1 (smoked marijuana prior to study), 0 h): 28.0 ng THC E/ml | Tetrahydrocannabinol Concentration in urine ([4]; subject 1 (smoked marijuana prior to study), 0-4 h): 45.0 ng THC E/ml | Tetrahydrocannabinol Concentration in urine ([4]; subject 1 (smoked marijuana prior to study), 4-8 h): 37.5 ng THC E/ml | Tetrahydrocannabinol Concentration in urine ([4]; subject 1 (smoked marijuana prior to study), 12-24 h): 45.0 ng THC E/ml | Tetrahydrocannabinol Concentration in urine ([4]; subject 1 (smoked marijuana prior to study), 24-48 h): 20.0 ng THC E/ml | Tetrahydrocannabinol Concentration in urine ([4]; subject 1 (smoked marijuana prior to study), 48-72 h): 27.5 ng THC E/ml | Tetrahydrocannabinol Concentration in urine ([4]; subject 2, sodium azide added, 0 h): 5.0 ng THC E/ml | Tetrahydrocannabinol Concentration in urine ([4]; subject 2, sodium azide added, 0-4 h): 11.0 ng THC E/ml | Tetrahydrocannabinol Concentration in urine ([4]; subject 2, sodium azide added, 4-8 h): 13.5 ng THC E/ml | Tetrahydrocannabinol Concentration in urine ([4]; subject 2, sodium azide added, 8-12 h): 7.5 ng THC E/ml | Tetrahydrocannabinol Concentration in urine ([4]; subject 2, sodium azide added, 12-24 h): 17.5 ng THC E/ml | Tetrahydrocannabinol Concentration in urine ([4]; subject 2, sodium azide added, 24-48 h): 7.5 ng THC E/ml | Tetrahydrocannabinol Concentration in urine ([4]; subject 2, sodium azide added, 48-72 h): 5.0 ng THC E/ml | Tetrahydrocannabinol Concentration in urine ([4]; subject 2, 0 h): 5.0 ng THC E/ml | Tetrahydrocannabinol Concentration in urine ([4]; subject 2, 0-4 h): 4.0 ng THC E/ml | Tetrahydrocannabinol Concentration in urine ([4]; subject 2, 4-8 h): 26.0 ng THC E/ml | Tetrahydrocannabinol Concentration in urine ([4]; subject 2, 8-12 h): 10.0 ng THC E/ml | Tetrahydrocannabinol Concentration in urine ([4]; subject 2, 12-24 h): 7.5 ng THC E/ml | Tetrahydrocannabinol Concentration in urine ([4]; subject 2, 24-48 h): 22.5 ng THC E/ml | Tetrahydrocannabinol Concentration in urine ([4]; subject 2, 48-72 h): 12.5 ng THC E/ml
